According to PubChem BioAssay AID1963838 (Molecular Pharmacology Branch, DTP, NCI, 2024):

System: 855422-203-R-J1-PDC complex spheroid viability
Experiment: Anticancer human tumor 855422-203-R-J1-PDC patient-derived bladder carcinoma cell line growth inhibition [POLQ]
Conditions: for IC50: curve of first compound; for viability, T/C: stronger effect = lower value
Summary of the method: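 Three-cell-type spheroids modelling solid tumor plus stroma served as the readout system; POL inhibitors were tested individually and in combination, concentration ranges set by clinical Cmax where known.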

[1] = second compound 0.0316 µM, first compound 0.0316 µM
[2] = second compound 0.0316 µM, first compound 0.1 µM
[3] = second compound 0.0316 µM, first compound 0.316 µM
[4] = second compound 0.0316 µM, first compound 1 µM
[5] = second compound 0.1 µM, first compound 0.0316 µM
[6] = second compound 0.1 µM, first compound 0.1 µM
[7] = second compound 0.1 µM, first compound 0.316 µM
[8] = second compound 0.1 µM, first compound 1 µM
[9] = second compound 0.316 µM, first compound 0.0316 µM
[10] = second compound 0.316 µM, first compound 0.1 µM
[11] = second compound 0.316 µM, first compound 0.316 µM
[12] = second compound 0.316 µM, first compound 1 µM
[13] = second compound 1 µM, first compound 0.0316 µM
[14] = second compound 1 µM, first compound 0.1 µM
[15] = second compound 1 µM, first compound 0.316 µM
[16] = second compound 1 µM, first compound 1 µM
[17] = second compound 3.16 µM, first compound 0.0316 µM
[18] = second compound 3.16 µM, first compound 0.1 µM
[19] = second compound 3.16 µM, first compound 0.316 µM
[20] = second compound 3.16 µM, first compound 1 µM
[21] = second compound 10 µM, first compound 0.0316 µM
[22] = second compound 10 µM, first compound 0.1 µM
[23] = second compound 10 µM, first compound 0.316 µM
[24] = second compound 10 µM, first compound 1 µM
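Also: spheroids exposed to compounds for seven days before readout.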

CCc1c2c(nc3ccc(O)cc13)-c1cc3c(c(=O)n1C2)COC(=O)[C@]3(O)CC + COC1C(OC(N)=O)C(O)C(Oc2ccc3c(O)c(NC(=O)c4ccc(O)c(CC=C(C)C)c4)c(=O)oc3c2C)OC1(C)C
IC50 (second compound 0.0316 µM): < 0.00316 µM
IC50 (second compound 0.1 µM): < 0.00316 µM
IC50 (second compound 0.316 µM): < 0.00316 µM
IC50 (second compound 1 µM): < 0.00316 µM
IC50 (second compound 3.16 µM): < 0.00316 µM
IC50 (second compound 10 µM): < 0.00316 µM
viability, T/C (second compound 0.0316 µM, first compound 0.00316 µM): 40.8%
viability, T/C (second compound 0.0316 µM, first compound 0.01 µM): 16.8%
viability, T/C [1]: 7.82%
viability, T/C [2]: 5.58%
viability, T/C [3]: 4.71%
viability, T/C [4]: 1.63%
viability, T/C (second compound 0.1 µM, first compound 0.00316 µM): 40.5%
viability, T/C (second compound 0.1 µM, first compound 0.01 µM): 14.3%
viability, T/C [5]: 8.6%
viability, T/C [6]: 6.16%
viability, T/C [7]: 3.09%
viability, T/C [8]: 1.68%
viability, T/C (second compound 0.316 µM, first compound 0.00316 µM): 42.7%
viability, T/C (second compound 0.316 µM, first compound 0.01 µM): 15.7%
viability, T/C [9]: 9.73%
viability, T/C [10]: 5.82%
viability, T/C [11]: 4.86%
viability, T/C [12]: 1.54%
viability, T/C (second compound 1 µM, first compound 0.00316 µM): 33.4%
viability, T/C (second compound 1 µM, first compound 0.01 µM): 14.5%
viability, T/C [13]: 9.49%
viability, T/C [14]: 5.81%
viability, T/C [15]: 3.09%
viability, T/C [16]: 2.46%
viability, T/C (second compound 3.16 µM, first compound 0.00316 µM): 26.4%
viability, T/C (second compound 3.16 µM, first compound 0.01 µM): 11.5%
viability, T/C [17]: 8.08%
viability, T/C [18]: 4.59%
viability, T/C [19]: 2.7%
viability, T/C [20]: 1.71%
viability, T/C (second compound 10 µM, first compound 0.00316 µM): 14.7%
viability, T/C (second compound 10 µM, first compound 0.01 µM): 11.2%
viability, T/C [21]: 7.82%
viability, T/C [22]: 6.39%
viability, T/C [23]: 3.19%
viability, T/C [24]: 1.43%

CNCc1ccc(-c2[nH]c3cc(F)cc4c3c2CCNC4=O)cc1 + COC1C(OC(N)=O)C(O)C(Oc2ccc3c(O)c(NC(=O)c4ccc(O)c(CC=C(C)C)c4)c(=O)oc3c2C)OC1(C)C
IC50 (second compound 0.0316 µM): > 10 µM
IC50 (second compound 0.1 µM): > 10 µM
IC50 (second compound 0.316 µM): > 10 µM
IC50 (second compound 1 µM): > 10 µM
IC50 (second compound 3.16 µM): > 10 µM
IC50 (second compound 10 µM): > 10 µM
viability, T/C [1]: 93.5%
viability, T/C [2]: 104%
viability, T/C [3]: 125%
viability, T/C [4]: 106%
viability, T/C (second compound 0.0316 µM, first compound 3.16 µM): 107%
viability, T/C (second compound 0.0316 µM, first compound 10 µM): 105%
viability, T/C [5]: 110%
viability, T/C [6]: 108%
viability, T/C [7]: 98%
viability, T/C [8]: 109%
viability, T/C (second compound 0.1 µM, first compound 3.16 µM): 100%
viability, T/C (second compound 0.1 µM, first compound 10 µM): 110%
viability, T/C [9]: 91.3%
viability, T/C [10]: 97.8%
viability, T/C [11]: 99.5%
viability, T/C [12]: 104%
viability, T/C (second compound 0.316 µM, first compound 3.16 µM): 105%
viability, T/C (second compound 0.316 µM, first compound 10 µM): 118%
viability, T/C [13]: 104%
viability, T/C [14]: 107%
viability, T/C [15]: 110%
viability, T/C [16]: 107%
viability, T/C (second compound 1 µM, first compound 3.16 µM): 117%
viability, T/C (second compound 1 µM, first compound 10 µM): 104%
viability, T/C [17]: 106%
viability, T/C [18]: 92%
viability, T/C [19]: 112%
viability, T/C [20]: 109%
viability, T/C (second compound 3.16 µM, first compound 3.16 µM): 104%
viability, T/C (second compound 3.16 µM, first compound 10 µM): 109%
viability, T/C [21]: 110%
viability, T/C [22]: 101%
viability, T/C [23]: 111%
viability, T/C [24]: 106%
viability, T/C (second compound 10 µM, first compound 3.16 µM): 93.2%
viability, T/C (second compound 10 µM, first compound 10 µM): 97.4%
